According to patent US20240327364A1, “THERAPEUTIC TARGETING OF GPR68 TO INDUCE FERROPTOSIS” (University Of Maryland, Baltimore, priority 2023, published 2024):

How the values were obtained:
ACVRLI = target: T1, ACVRLI (Homo sapiens, UniProt P37023); assay: KinomeScan; type: binding; settings: read-out: % Control
T1 construct: purchased DiscoveRx

INK2 = target: T2, INK2 (Homo sapiens, UniProt P45984); assay: KinomeScan; type: binding; settings: read-out: % Control
T2 construct: purchased DiscoveRx
T2 sequence (P45984 whole entry): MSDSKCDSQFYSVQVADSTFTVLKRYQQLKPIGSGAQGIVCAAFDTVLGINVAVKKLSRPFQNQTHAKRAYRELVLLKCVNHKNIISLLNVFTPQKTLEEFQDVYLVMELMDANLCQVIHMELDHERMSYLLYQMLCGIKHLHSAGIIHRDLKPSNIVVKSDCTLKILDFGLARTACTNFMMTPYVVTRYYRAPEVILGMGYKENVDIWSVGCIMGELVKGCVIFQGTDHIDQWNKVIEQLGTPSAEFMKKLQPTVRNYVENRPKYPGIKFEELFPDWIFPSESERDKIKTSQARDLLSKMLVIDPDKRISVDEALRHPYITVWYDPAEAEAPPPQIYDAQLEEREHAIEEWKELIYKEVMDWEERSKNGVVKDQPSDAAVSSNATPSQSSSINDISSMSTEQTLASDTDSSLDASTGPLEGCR

C5aR = target: T3, C5aR (Homo sapiens, UniProt P21730); assay: GPCR Profiler; type: cell-based
T3 construct: host or cells: Chem-1 cells with promiscuous Gα15
T3 sequence (P21730 whole entry, species assumed): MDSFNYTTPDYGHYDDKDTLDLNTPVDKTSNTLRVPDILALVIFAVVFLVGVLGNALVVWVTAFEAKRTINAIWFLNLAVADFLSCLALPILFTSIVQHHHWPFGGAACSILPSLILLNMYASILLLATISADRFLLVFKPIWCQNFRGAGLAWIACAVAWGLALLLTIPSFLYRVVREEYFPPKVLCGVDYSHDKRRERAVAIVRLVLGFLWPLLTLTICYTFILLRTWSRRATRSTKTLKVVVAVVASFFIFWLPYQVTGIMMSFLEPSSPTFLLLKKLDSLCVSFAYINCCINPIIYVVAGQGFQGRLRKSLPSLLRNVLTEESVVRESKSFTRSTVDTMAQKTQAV

PFTAIRE2 = target: T4, PFTAIRE2 (Homo sapiens, UniProt Q96Q40); assay: KinomeScan; type: binding; settings: read-out: % Control
T4 construct: purchased DiscoveRx (Fremont, CA)
T4 sequence (Q96Q40 whole entry): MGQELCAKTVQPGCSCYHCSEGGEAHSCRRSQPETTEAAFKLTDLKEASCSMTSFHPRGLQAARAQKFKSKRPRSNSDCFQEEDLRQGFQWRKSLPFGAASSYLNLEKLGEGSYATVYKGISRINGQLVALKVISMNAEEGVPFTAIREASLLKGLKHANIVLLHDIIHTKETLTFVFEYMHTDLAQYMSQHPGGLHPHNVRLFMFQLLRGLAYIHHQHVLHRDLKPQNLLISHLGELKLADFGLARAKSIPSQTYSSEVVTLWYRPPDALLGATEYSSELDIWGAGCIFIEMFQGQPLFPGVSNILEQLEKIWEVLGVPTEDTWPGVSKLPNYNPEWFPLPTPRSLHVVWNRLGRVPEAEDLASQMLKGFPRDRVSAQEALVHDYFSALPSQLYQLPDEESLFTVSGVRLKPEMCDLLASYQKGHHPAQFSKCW

ADRB3 = target: T5, ADRB3 (Homo sapiens, UniProt P13945); assay: GPCR Profiler; type: cell-based; settings: 12.5 uM
T5 construct: host or cells: Chem-1 cells with promiscuous Gα15

PYK2 = target: T6, PYK2 (Homo sapiens, UniProt Q14289); assay: KinomeScan; type: binding; settings: read-out: % Control
T6 construct: purchased DiscoveRx (Fremont, CA)

[1] = target: T7, ABL1(F317I)-nonphosphorylated (Homo sapiens, UniProt P00519, F317I); assay: KinomeScan; type: binding; settings: read-out: % Control
T7 construct: purchased DiscoveRx

[2] = target: T8, ABL1(F317I)-phosphorylated (Homo sapiens, UniProt P00519, F317I); assay: KinomeScan; type: binding; settings: read-out: % Control
T8 construct: purchased DiscoveRx

PKNB(M. tuberculosis) = target: T9, PKNB(M. tuberculosis) (Mycobacterium tuberculosis, UniProt P9WI81); assay: KinomeScan; type: binding; settings: read-out: % Control
T9 construct: purchased DiscoveRx (Fremont, CA)
T9 sequence (P9WI81 whole entry): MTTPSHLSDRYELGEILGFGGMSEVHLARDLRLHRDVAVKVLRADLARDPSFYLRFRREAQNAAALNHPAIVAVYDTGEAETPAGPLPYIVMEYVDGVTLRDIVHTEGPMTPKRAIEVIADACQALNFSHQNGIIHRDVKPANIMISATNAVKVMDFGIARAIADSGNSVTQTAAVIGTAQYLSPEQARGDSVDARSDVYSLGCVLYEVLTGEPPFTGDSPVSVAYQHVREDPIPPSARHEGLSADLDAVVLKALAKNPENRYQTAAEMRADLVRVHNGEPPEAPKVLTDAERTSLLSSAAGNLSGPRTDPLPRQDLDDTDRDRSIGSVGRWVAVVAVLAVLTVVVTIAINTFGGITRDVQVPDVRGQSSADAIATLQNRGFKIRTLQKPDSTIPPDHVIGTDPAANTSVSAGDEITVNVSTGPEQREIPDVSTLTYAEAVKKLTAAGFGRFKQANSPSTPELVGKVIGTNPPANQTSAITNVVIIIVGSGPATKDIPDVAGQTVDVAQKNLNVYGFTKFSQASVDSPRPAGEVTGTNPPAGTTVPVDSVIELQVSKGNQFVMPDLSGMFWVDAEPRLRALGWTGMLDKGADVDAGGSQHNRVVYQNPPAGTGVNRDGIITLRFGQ

sst5 = target: T10, sst5 (Homo sapiens, UniProt P35346); assay: GPCR Profiler; type: cell-based
T10 construct: host or cells: Chem-1 cells with Gα15
T10 sequence (P35346 whole entry, species assumed): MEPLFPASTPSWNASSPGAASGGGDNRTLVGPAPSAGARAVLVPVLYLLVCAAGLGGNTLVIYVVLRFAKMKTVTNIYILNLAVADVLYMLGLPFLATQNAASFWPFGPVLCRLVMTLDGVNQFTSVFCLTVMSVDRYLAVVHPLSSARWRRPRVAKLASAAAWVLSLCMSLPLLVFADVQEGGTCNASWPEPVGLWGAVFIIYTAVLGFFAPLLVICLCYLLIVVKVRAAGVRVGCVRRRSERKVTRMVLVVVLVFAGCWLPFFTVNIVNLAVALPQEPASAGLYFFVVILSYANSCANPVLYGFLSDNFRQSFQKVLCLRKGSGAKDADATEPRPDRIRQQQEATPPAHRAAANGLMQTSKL

PIK3CA = target: T11, PIK3CA (Homo sapiens, UniProt P42336); assay: KinomeScan; type: binding; settings: read-out: % Control
T11 construct: purchased DiscoveRx (Fremont, CA)
T11 sequence (P42336 whole entry): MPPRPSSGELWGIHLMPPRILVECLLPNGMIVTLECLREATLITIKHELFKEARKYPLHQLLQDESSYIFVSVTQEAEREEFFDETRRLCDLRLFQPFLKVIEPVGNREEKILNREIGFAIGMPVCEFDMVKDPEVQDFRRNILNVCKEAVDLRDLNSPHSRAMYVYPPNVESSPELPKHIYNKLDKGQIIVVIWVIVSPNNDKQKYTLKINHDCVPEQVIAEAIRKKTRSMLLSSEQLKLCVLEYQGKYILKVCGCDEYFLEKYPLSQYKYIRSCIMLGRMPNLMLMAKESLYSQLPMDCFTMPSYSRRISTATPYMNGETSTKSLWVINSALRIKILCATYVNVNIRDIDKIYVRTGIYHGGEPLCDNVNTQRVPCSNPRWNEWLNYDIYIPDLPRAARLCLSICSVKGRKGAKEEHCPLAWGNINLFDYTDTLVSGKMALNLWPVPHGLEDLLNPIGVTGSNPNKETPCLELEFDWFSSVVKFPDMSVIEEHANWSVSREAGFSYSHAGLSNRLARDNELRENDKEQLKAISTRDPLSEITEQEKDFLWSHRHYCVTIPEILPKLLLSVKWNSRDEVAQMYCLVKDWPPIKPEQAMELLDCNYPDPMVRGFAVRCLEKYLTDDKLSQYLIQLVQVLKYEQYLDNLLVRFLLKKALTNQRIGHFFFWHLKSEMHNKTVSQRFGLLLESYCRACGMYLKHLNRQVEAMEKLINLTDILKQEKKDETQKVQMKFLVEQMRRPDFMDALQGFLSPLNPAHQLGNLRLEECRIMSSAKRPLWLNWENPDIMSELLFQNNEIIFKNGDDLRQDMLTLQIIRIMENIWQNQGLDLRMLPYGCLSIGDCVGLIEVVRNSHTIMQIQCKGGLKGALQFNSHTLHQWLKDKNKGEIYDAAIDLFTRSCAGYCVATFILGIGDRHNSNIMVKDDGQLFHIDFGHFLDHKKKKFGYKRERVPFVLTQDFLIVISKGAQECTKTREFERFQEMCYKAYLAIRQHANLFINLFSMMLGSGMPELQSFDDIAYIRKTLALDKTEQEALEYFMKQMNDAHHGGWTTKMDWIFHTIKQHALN

[3] = target: T12, ABL1(T315I)-phosphorylated (Homo sapiens, UniProt P00519, T315I); assay: KinomeScan; type: binding; settings: read-out: % Control
T12 construct: purchased DiscoveRx

FLT3(K663Q) = target: T13, FLT3(K663Q) (Homo sapiens, UniProt P36888, K663Q); assay: KinomeScan; type: binding; settings: read-out: % Control
T13 construct: purchased DiscoveRx (Fremont, CA)

[4] = target: T14, RSK3(Kin.Dom.2-C-terminal) (Homo sapiens, UniProt Q15349); assay: KinomeScan; type: binding; settings: read-out: % Control
T14 construct: RSK3(Kin.Dom.2-C-terminal); purchased DiscoveRx (Fremont, CA)

NDR1 = target: T15, NDR1 (Homo sapiens, UniProt Q15208); assay: KinomeScan; type: binding; settings: read-out: % Control
T15 construct: purchased DiscoveRx
T15 sequence (Q15208 whole entry): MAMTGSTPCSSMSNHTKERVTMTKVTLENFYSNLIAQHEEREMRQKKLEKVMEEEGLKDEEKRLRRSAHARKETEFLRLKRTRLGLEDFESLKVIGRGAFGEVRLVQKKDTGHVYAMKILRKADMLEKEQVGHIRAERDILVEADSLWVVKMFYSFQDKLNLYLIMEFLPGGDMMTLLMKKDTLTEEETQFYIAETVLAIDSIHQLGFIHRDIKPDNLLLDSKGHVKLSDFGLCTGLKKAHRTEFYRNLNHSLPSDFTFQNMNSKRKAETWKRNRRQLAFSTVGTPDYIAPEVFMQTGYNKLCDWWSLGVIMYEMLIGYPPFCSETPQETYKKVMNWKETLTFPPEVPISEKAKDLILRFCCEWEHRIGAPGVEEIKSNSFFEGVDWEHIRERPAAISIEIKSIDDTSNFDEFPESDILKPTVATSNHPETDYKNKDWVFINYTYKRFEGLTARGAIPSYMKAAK

TAOK2 = target: T16, TAOK2 (Homo sapiens, UniProt Q9UL54); assay: KinomeScan; type: binding; settings: read-out: % Control
T16 construct: purchased DiscoveRx (Fremont, CA)

TRH = target: T17, TRH (Homo sapiens, UniProt P34981); assay: GPCR Profiler; type: cell-based
T17 construct: host or cells: Chem-1 cells with Gα15
T17 sequence (P34981 whole entry): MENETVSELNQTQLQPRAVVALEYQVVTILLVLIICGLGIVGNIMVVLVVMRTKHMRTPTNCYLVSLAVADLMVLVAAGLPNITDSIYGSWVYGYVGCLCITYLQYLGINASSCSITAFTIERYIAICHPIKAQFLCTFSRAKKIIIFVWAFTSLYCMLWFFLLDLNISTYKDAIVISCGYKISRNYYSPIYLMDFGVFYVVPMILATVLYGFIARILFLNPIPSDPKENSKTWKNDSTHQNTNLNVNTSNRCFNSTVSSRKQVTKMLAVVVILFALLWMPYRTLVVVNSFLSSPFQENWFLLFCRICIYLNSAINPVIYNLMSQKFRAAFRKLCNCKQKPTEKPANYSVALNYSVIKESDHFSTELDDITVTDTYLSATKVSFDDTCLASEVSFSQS

[5] = tested on: ALI induced by HTV, LPS and both; assay: HTV mechanical ventilation / LPS acute lung injury; type: in vivo, C57Bl mice
Text: FIG. 38A through FIG. 38D: High-tidal volume (HTV) mechanical ventilation causes ALI and exacerbates ALI caused by LPS (“two-hit”) in C57Bl mice, and OGM2 attenuates these effects. […] Lungs from mice treated with OGM2 are marked with “+”. […] Here, OGM and OGM8345=OGM2.

GPR68 = GPR68 (Homo sapiens, UniProt Q15743); assay: Acid-induced calcium response, GPR68-transfected HEK293 cells; type: cell-based
Sequence of GPR68 (Q15743 whole entry): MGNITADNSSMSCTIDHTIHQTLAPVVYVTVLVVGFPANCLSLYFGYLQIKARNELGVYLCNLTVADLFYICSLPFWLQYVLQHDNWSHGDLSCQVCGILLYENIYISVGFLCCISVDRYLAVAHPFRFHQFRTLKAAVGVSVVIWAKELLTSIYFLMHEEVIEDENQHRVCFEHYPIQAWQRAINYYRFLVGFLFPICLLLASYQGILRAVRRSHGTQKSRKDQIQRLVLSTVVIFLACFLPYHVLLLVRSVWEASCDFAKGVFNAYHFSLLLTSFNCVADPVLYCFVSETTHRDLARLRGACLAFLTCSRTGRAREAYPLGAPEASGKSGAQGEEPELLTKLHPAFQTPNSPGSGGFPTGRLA

U138 spheroids = assay: GBM spheroid assay; type: cell-based, human
Procedure: One thousand cells per well were plated in an ultra-low attachment, round-bottomed, 96-well plate, and spheroids were allowed to form for 3 days. Wells were then exposed to concentrations of vehicle, OGM2 or TMZ or a combination for 3 days. Spheroids were imaged in brightfield at 10× using z-stacks that were collapsed into z-projections in the Gen5 software using the LionheartFx (BioTek™). Automated measurements of the spheroid area were obtained using Gen5 software.
Tumor spheroid cultures are a more physiological model of tumor growth than typical 2D cell culture. Temozolomide sensitive U87 (FIG. 20A) and Temozolomide insensitive U138 (FIG. 20B) glioblastoma cell lines were plated in low attachment round bottom 96-well plates and allowed to form tumor spheroids for 3 days (T0). At T0, spheroids were imaged using Lionheart™ (HCS) High-Content Imaging Systems (Biotek™) and then were exposed to increasing doses of either Temozolomide or OGM2. After 5 days of treatment the spheroids were imaged again (T5). The size (area) of the spheroids after 5 days of treatment was quantified, and the average size of the spheroids at TO is depicted in red.

U138 = assay: 2D cell growth/viability; type: cell-based, human
Procedure: GBM neurospheres and low passage PDX models were plated in 96-well plates at 10,000 cells per well in 50 μL of neural stem cell media. The next day, the cells were treated with OGM2 compounds at the indicated concentrations, in triplicates, by adding an equal volume of medium containing 2× the final concentration of compound. Following 72 hours incubation under standard cell culture conditions, relative cell number was assessed using Cell Titer-Glo Luminescent Cell Viability Assay (Promega™) following the manufacturer's instructions. Luminescence was determined using a Cytation 5 reader and Gen5 software package (BioTek™). For U87 and U138 cell lines, one thousand cells were plated per well in a standard 96-well plate and allowed to attach for 24 hours before exposure to concentrations of vehicle, OGM2, or TMZ. Cells were treated for 72 hours and then stained with DAPI. A 10× magnification lens on a LionheartFX (BioTek™) was used to image the wells, and images were stitched together with Gen5 software (BioTek™). Automated nuclei counting was also done using the Gen5 software. Results reported as percent response relative to DMSO control. IC50 (the concentration causing 50% inhibition) was determined by GraphPad Prism™ version 6.07.
Temozolomide is the standard of care for glioblastoma but only works on 30% of patients. […]

T1 sequence (P37023 202-492 limits assumed): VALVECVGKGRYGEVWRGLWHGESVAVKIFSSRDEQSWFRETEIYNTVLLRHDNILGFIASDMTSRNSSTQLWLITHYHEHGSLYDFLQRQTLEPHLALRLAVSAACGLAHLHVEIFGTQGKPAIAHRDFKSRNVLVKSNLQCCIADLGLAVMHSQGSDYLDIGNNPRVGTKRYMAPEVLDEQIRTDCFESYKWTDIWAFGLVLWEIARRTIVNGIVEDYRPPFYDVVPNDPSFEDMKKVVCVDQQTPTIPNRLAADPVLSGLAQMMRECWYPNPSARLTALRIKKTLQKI

## CCc1ccc2c(c1)C1(NN=C(c3cccc4ccccc34)S1)C(=O)N2 (stereo not drawn) [OGM1, 5-ethyl-5′-naphthalen-1-ylspiro[1H-indole-3,2′-3H-1,3,4-thiadiazole]-2-one]
ACVRLI
  remaining binding at 10 µM: 100%
INK2
  remaining binding at 10 µM: 83%
C5aR; 10 uM
  Antagonism: −0.7
C5aR; 12.5 uM
  Agonism: 3.1
PFTAIRE2
  remaining binding at 10 µM: 93%
ADRB3
  Agonism: −0.2
PYK2
  remaining binding at 10 µM: 100%
[1]
  remaining binding at 10 µM: 100%
[2]
  remaining binding at 10 µM: 82%
PKNB(M. tuberculosis)
  remaining binding at 10 µM: 79%
sst5; 10 uM
  Antagonism: −4
sst5; 12.5 uM
  Agonism: −0.3
PIK3CA
  remaining binding at 10 µM: 100%
[3]
  remaining binding at 10 µM: 72%
FLT3(K663Q)
  remaining binding at 10 µM: 100%
[4]
  remaining binding at 10 µM: 54%
NDR1
  remaining binding at 10 µM: 98%
TAOK2
  remaining binding at 10 µM: 81%
TRH; 10 uM
  Antagonism: 1.4
TRH; 12.5 uM
  Agonism: 0.1

## CCc1ccc2c(c1)C1(NN=C(c3ccccc3)S1)C(=O)N2 (stereo not drawn) [OGM2]
[5]; OGM2 40 mg/kg ip 15 minutes before HTV
  lung vascular leak (Evans blue): significantly attenuated lung vascular leak
[5]; mouse, in vivo
  BAL cell count: significantly attenuated the rise
  BAL protein concentration: significantly attenuated the rise
  inflammatory cytokine mRNA expression: blunted the rise
GPR68
  calcium response to extracellular acidification: inhibited
U138 spheroids
  growth of 3D spheroids: significantly decreased the growth of U138 3D spheroids
U138
  cell growth in 2D culture: caused dose-dependent inhibition of U138 cell growth
